According to US20160002273A1, “THIENO[3,2-D]PYRIMIDINE-6-CARBOXAMIDES AND ANALOGUES AS SIRTUIN MODULATORS” (GLAXOSMITHKLINE LLC, priority 2013, published 2016):
Converted amounts (≈) assume the structure as drawn. Where two headings read alike, the source gives them in different places.

How the values were obtained:
[1] = Kinetic solubility by chemi-luminescent nitrogen detection (CLND); type: physicochemical; conditions: aqueous buffer, kinetic from dmso stock, DMSO stock incubated 1 hr in phosphate buffered saline pH 7.4, filtered
SIRT3 = biological target: T1, SIRT3 (Homo sapiens, UniProt Q9NTG7); assay: SIRT3 deacetylation of Trp 5-mer peptide, OAADPr mass spec assay
T1 sequence (Q9NTG7 102-399): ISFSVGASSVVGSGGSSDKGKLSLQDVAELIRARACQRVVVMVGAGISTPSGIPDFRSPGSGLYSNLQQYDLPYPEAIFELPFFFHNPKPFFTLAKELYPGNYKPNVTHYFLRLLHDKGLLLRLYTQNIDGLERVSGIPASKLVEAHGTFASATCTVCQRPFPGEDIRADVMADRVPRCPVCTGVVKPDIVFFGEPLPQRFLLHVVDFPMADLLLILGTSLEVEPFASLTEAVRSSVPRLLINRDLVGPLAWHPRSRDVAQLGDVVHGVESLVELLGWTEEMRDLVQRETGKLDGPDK
Method: (§1) All assays were performed at room temperature in reaction buffer (50 mM HEPES, pH 7.5, 150 mM NaCl, 1 mM DTT, 0.05% BSA). […] To prepare the assays for analysis, 20 μL of reaction volume was mixed in 80 μL of 50:50 acetonitrile:methanol mixture. […] Peak data was integrated using RapidFire Integrator software (Agilent, Santa Clara, Calif.).

SIRT1 = biological target: T2, SIRT1 (Homo sapiens, UniProt Q96EB6); assay: SIRT1 deacetylation of Trp 5-mer peptide, OAADPr mass spec assay
T2 sequence (Q96EB6 1-747): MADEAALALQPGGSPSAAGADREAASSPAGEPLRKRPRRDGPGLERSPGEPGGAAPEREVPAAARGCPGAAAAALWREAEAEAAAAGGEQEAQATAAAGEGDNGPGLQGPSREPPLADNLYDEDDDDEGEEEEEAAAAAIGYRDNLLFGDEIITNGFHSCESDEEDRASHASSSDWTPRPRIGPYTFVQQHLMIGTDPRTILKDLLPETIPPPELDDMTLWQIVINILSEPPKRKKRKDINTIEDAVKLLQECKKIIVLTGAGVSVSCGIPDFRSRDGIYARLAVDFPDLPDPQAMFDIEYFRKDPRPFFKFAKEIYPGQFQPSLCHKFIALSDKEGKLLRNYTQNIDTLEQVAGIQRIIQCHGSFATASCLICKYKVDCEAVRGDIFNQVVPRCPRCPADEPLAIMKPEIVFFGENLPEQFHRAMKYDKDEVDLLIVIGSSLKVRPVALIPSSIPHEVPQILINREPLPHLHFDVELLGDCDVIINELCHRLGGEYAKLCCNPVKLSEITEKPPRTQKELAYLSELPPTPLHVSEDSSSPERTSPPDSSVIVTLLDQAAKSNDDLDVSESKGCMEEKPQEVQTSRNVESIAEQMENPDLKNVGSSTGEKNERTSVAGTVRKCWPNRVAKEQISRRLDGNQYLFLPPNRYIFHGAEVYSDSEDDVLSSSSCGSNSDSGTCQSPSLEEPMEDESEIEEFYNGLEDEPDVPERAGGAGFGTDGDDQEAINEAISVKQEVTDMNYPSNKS
Method: as §1

SIRT2 = biological target: T3, SIRT2 (Homo sapiens, UniProt Q8IXJ6); assay: SIRT2 deacetylation of Trp 5-mer peptide, OAADPr mass spec assay; type: biochemical; design: His-SIRT2(1-389)
T3 sequence (Q8IXJ6 1-389): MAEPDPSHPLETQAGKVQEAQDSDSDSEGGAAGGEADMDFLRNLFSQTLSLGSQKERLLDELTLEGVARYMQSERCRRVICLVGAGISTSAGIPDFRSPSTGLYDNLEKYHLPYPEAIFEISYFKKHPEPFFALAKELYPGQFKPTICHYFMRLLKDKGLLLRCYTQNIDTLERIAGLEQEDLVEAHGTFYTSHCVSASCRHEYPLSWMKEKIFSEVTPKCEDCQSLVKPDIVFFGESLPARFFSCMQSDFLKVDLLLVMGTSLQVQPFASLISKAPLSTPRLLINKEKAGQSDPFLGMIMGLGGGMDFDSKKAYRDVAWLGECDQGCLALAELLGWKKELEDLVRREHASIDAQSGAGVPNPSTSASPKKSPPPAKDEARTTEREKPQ

[2] = HPLC based lipophilicity assay (CHI LogD); type: physicochemical; conditions: CHI values by reverse phase HPLC transformed to a LogD scale
SIRT1/2/3 = SIRT1/2/3 biochemical assay, statements spanning all three enzymes; design: species or system human; conditions: across SIRT1, SIRT2 and SIRT3
[3] = Trp SIRT3_IC50, Trp 5-mer peptide, class symbols
[4] = IC50 (μM) SIRT1, Trp 5-mer peptide and NAD at KM, mean of at least three determinations
[5] = Trp SIRT1_IC50, Trp 5-mer peptide, class symbols
[6] = Trp 5-mer peptide and NAD at KM, mean of at least three determinations, read-out: IC50 (μM) SIRT2
[7] = Trp 5-mer peptide, class symbols, read-out: Trp SIRT2_IC50
[8] = read-out: IC50 (μM) SIRT1, Trp 5-mer peptide and NAD at KM, mean of at least three determinations
[9] = IC50 (μM) SIRT3, Trp 5-mer peptide and NAD at KM, mean of at least three determinations
[10] = Trp SIRT2_IC50, Trp 5-mer peptide, class symbols

SMILES | IC50 (SIRT3; [3]) | IC50 (SIRT1; [5]) | IC50 (SIRT2; [7]) | other results
CCNC(=O)c1cccc(C(=O)NCCC2CCN(c3ncnc4cc(C(N)=O)sc34)CC2)c1 [Compound 11a, N^1-(2-(1-(6-carbamoylthieno[3,2-d]pyrimidin-4-yl)piperidin-4-yl)ethyl)-N^3-ethylisophthalamide] | < 1 µM | < 1 µM | < 1 µM | solubility at 1 hr [1]: 19 µM (≈ 9.13 µg/mL); IC50 (SIRT3; SIRT3 IC50, as stated in text): 0.001 µM; IC50 (SIRT1; [4]): 0.014 µM; IC50 (SIRT2; [6]): 0.005 µM; LogD [2]: 2.09
CCNC(=O)c1cccc(C(=O)NCCN2CCN(c3ncnc4cc(C(N)=O)sc34)CC2)c1 [Compound 11b] |  | < 1 µM | < 1 µM | solubility at 1 hr [1]: 220 µM (≈ 106 µg/mL); IC50 (SIRT1; [8]): 0.067 µM; IC50 (SIRT2; [6]): 0.01 µM; LogD [2]: 1.45
CCNC(=O)c1ccc(C(=O)NCCC2CCN(c3ncnc4cc(C(N)=O)sc34)CC2)s1 [Compound 11c] |  |  |  | solubility at 1 hr [1]: 9 µM (≈ 4.38 µg/mL); LogD [2]: 2.09
CCNC(=O)c1ccc(C(=O)NCCN2CCN(c3ncnc4cc(C(N)=O)sc34)CC2)s1 [Compound 11d] |  | < 1 µM | < 1 µM | solubility at 1 hr [1]: 65 µM (≈ 31.7 µg/mL); IC50 (SIRT1; [8]): 0.031 µM; IC50 (SIRT2; [6]): 0.005 µM; LogD [2]: 1.32
NC(=O)c1cc2ncnc(Cl)c2s1 [Compound 14, 4-chlorothieno[3,2-d]pyrimidine-6-carboxamide] | > 10 µM | > 10 µM | > 10 µM | SIRT1/2/3 inhibitory activity, in words (SIRT1/2/3): not conserved; IC50 (SIRT3; [9]): > 50 µM; IC50 (SIRT1; [4]): > 50 µM; IC50 (SIRT2; [6]): > 50 µM
NC(=O)c1cc2ncnc(N3CCCCC3)c2s1 [Compound 21, 4-(Piperidin-1-yl)thieno[3,2-d]pyrimidine-6-carboxamide] | 1 to 10 µM | > 10 µM |  | SIRT1/2/3 inhibitory activity, in words (SIRT1/2/3): micromolar levels; IC50 (SIRT3; read-out: IC50 (μM) SIRT3, Trp 5-mer peptide and NAD at KM, mean of at least three determinations): 8.6 µM; IC50 (SIRT1; [8]): 15 µM; IC50 (SIRT2; [6]): 1.4 µM; IC50 (SIRT2; [10]): 1 to 10 µM
CCNc1ncnc2cc(C(N)=O)sc12 [Compound 22, 4-(Ethylamino)thieno[3,2-d]pyrimidine-6-carboxamide] | > 10 µM | > 10 µM |  | SIRT1/2/3 inhibitory activity, in words (SIRT1/2/3): not conserved; IC50 (SIRT3; [9]): > 50 µM; IC50 (SIRT1; [4]): > 50 µM; IC50 (SIRT2; [6]): 49 µM; IC50 (SIRT2; [10]): > 10 µM
Cc1nc(N2CCN(CCN)CC2)c2sc(C(N)=O)cc2n1 [Compound 153] | 1 to 10 µM | > 10 µM | 1 to 10 µM | 
Cc1nc(N2CCN(CCNC(=O)C(C)(C)C)CC2)c2sc(C(N)=O)cc2n1 [Compound 156] | 1 to 10 µM | 1 to 10 µM | < 1 µM | 
Cc1nc(N2CCN(CCNC(=O)C3CCCC3)CC2)c2sc(C(N)=O)cc2n1 [Compound 157] | 1 to 10 µM | 1 to 10 µM | < 1 µM | 
Cc1nc(N2CCN(CCNS(C)(=O)=O)CC2)c2sc(C(N)=O)cc2n1 [Compound 158] | 1 to 10 µM | > 10 µM | 1 to 10 µM | 
Cc1nc(N2CCC(CCNC(=O)C(C)(C)C)CC2)c2sc(C(N)=O)cc2n1 [Compound 159] | 1 to 10 µM | < 1 µM | < 1 µM | 
CC(C)(C)OC(=O)NCCC1CCN(c2nccc3cc(C(N)=O)sc23)CC1 [Compound 168, tert-butyl (2-(1-(2-carbamoylthieno[2,3-c]pyridin-7-yl)piperidin-4-yl)ethyl)carbamate] | 1 to 10 µM | 1 to 10 µM | 1 to 10 µM | 
NC(=O)c1cc2ccnc(N3CCC(CCN4CCCC4)CC3)c2s1 [Compound 169] | < 1 µM | 1 to 10 µM | 1 to 10 µM | 
NC(=O)c1cc2ccnc(N3CCC(CN4CCCC4)CC3)c2s1 [Compound 170] | 1 to 10 µM | > 10 µM | > 10 µM | 
COCCC1CCN(c2nccc3cc(C(N)=O)sc23)CC1 [Compound 171] | > 10 µM | > 10 µM | > 10 µM | 

SMILES | IC50 (SIRT3; [3]) | IC50 (SIRT1; [5]) | IC50 (SIRT2; [7]) | other results
NC(=O)c1cc2ccnc(N3CCN(CCN4CCCC4)CC3)c2s1 [Compound 173] | < 1 µM | 1 to 10 µM | 1 to 10 µM | 
NCCC1CCN(c2nccc3cc(C(N)=O)sc23)CC1 [Compound 175, 7-(4-(2-aminoethyl)piperidin-1-yl)thieno[2,3-c]pyridine-2-carboxamide] | > 10 µM | > 10 µM | > 10 µM | 
CC(C)(C)C(=O)NCCN1CCN(c2nccc3cc(C(N)=O)sc23)CC1 [Compound 179] | > 10 µM | > 10 µM | 1 to 10 µM | 
NC(=O)c1cc2ncnc(N3CCC(C(=O)N4CCCC4)CC3)c2s1 [Compound 182] | 1 to 10 µM | > 10 µM | 1 to 10 µM | 
CC(C1CCN(c2ncnc3cc(C(N)=O)sc23)CC1)N1CCCC1 (stereo not shown) [Compound 183] | < 1 µM | < 1 µM | < 1 µM | 
CC(C)(C)OC(=O)N1CCC2(CCN(c3ncnc4cc(C(N)=O)sc34)CC2)C1 [Compound 184] | 1 to 10 µM | 1 to 10 µM | < 1 µM | 
NC(=O)c1cc2ncnc(N3CCC4(CCNC4)CC3)c2s1 [Compound 185] | < 1 µM | 1 to 10 µM | 1 to 10 µM | 
CC(C)(C)C(=O)N1CCC2(CCN(c3ncnc4cc(C(N)=O)sc34)CC2)C1 [Compound 186] | < 1 µM | < 1 µM | < 1 µM | 
NCCC1CCN(c2ncnc3ccsc23)CC1 [Compound 188, 2-(1-(thieno[3,2-d]pyrimidin-4-yl)piperidin-4-yl)ethanamine 2,2,2-trifluoroacetate] | > 10 µM | > 10 µM | 1 to 10 µM | 
CC(C)(C)OC(=O)NCCC1CCN(c2ncnc3cc(C(=O)O)sc23)CC1 [Compound 189, 4-(4-(2-((tert-butoxycarbonyl)amino)ethyl)piperidin-1-yl)thieno[3,2-d]pyrimidine-6-carboxylic acid] | > 10 µM | > 10 µM | > 10 µM | 
CCNC(=O)c1cccc(C(=O)NCCN2CCN(c3ncnc4ccsc34)CC2)c1 [Compound 190] | > 10 µM | > 10 µM | > 10 µM | 
NCCNC(=O)c1cccc(C(=O)NCCN2CCN(c3ncnc4ccsc34)CC2)c1 [Compound 191] | > 10 µM | > 10 µM | > 10 µM | 
O=C(O)c1cc2ncnc(N3CCC(CN4CCCC4)CC3)c2s1 [Compound 192] | > 10 µM | > 10 µM | > 10 µM | 
CCNC(=O)c1ccc(C(=O)NCCC2CCN(c3ncnc4ccsc34)CC2)s1 [Compound 193] | > 10 µM | > 10 µM | > 10 µM | 
CCNC(=O)c1ccc(C(=O)NCCC2CCN(c3ncnc4cc(C(=O)NCC)sc34)CC2)s1 [Compound 194] | 1 to 10 µM | 1 to 10 µM | 1 to 10 µM | 
